Data published in US11053213B2, “Pharmaceutical compounds” (ALMAC DISCOVERY LIMITED, priority 2016, dated 2021).

Target: USP19 (Homo sapiens (Human), UniProt O94966)
Experiment: USP19 activity assay (fluorescence polarisation, Ubiquitin-Lys-TAMRA substrate)
Assay type: biochemical
Settings: full-length USP19 2.5 nM, 30 min pre-incubation, Ub substrate 500 nM; average of at least two duplicate experiments
Experimental: Unless otherwise stated, all other reagents were purchased from Sigma. Enzymatic reactions were conducted in black flat bottom polystyrene 384-well plates (Nunc) and 30 μL total volume. […] Inhibitors were stored as 10 mM DMSO stocks in an inert environment (low humidity, dark, low oxygen, room temperature) using the Storage Pod System and serial dilutions were prepared in buffer just prior to the assay (from 200 μM to 2 pM, 8-18 data point curve). Following incubation at RT for 30 min, the enzymatic reactions were initiated by dispensing the Ub substrate (500 nM, 10 μL). FP was measured every 15 min over a period of 90 min (within the linear range of the assay) using a Synergy 4 plate reader (BioTek) exciting at 530 nm and measuring the amount of parallel and perpendicular light at 575 nm. The FP signal was subsequently normalised to the no compound control.

USP19, sequence (O94966 whole entry): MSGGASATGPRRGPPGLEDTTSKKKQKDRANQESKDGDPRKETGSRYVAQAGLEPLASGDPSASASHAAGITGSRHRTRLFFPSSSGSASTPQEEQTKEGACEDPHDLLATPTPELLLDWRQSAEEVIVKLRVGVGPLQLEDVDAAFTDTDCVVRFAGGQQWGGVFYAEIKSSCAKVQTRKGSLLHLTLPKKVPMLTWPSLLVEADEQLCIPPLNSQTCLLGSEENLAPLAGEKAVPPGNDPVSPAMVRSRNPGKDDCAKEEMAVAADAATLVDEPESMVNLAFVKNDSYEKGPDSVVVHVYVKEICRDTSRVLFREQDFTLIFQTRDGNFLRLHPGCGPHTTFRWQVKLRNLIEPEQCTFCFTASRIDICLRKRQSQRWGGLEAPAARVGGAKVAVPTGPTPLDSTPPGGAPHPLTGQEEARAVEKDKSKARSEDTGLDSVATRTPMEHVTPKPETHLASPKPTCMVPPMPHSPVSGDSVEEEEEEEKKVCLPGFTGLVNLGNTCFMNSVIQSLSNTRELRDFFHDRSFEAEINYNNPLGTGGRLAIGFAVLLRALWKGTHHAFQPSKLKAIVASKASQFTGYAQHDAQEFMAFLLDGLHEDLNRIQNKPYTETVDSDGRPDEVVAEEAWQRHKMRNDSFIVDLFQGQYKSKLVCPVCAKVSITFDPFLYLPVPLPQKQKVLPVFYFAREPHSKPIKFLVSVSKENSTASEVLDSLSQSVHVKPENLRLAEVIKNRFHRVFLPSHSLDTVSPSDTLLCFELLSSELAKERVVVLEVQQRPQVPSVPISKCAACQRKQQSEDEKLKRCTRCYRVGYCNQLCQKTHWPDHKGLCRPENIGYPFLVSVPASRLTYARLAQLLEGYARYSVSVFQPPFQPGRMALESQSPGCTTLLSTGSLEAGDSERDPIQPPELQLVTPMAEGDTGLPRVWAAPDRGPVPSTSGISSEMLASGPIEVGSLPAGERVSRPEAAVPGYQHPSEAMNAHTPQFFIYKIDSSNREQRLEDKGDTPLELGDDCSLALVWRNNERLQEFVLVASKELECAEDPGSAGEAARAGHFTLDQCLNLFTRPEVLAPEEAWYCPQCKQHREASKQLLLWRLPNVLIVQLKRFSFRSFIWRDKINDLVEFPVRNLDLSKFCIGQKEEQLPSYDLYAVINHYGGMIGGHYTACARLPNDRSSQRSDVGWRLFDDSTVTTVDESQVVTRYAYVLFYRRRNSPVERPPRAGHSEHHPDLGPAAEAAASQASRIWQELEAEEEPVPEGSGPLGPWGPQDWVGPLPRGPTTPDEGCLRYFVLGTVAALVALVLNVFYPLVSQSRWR

SMILES | IC50 [µM]
CCC(C)(C)C(=O)N1CCC(O)(Cn2cc(C(=O)N(C)C(C)C)c(-c3ccccc3)cc2=O)CC1 [Example 84, 1-((1-(2,2-Dimethylbutanoyl)-4-hydroxypiperidin-4-yl)methyl)-N-isopropyl-N-methyl-6-oxo-4-phenyl-1,6-dihydropyridine-3-carboxamide] | 50 to 250
CC1(C)CN(C(=O)CCc2ccccc2)CCC1(O)Cn1cnc(-c2ccccc2F)cc1=O (racemic) [Example 68, (R,S)-6-(2-Fluorophenyl)-3-((4-hydroxy-3,3-dimethyl-1-(3-phenylpropanoyl)piperidin-4-yl)methyl)pyrimidin-4(3H)-one] | 5 to 50
C[C@H](CC1CCC1)C(=O)N1CC[C@@](O)(Cn2cc(C(=O)N(C)C)c(-c3ccccc3)cc2=O)C2(CCCC2)C1 [Example 214, 1-(((S)-7-((R)-3-Cyclobutyl-2-methylpropanoyl)-10-hydroxy-7-azaspiro[4.5]decan-10-yl)methyl)-N,N-dimethyl-6-oxo-4-phenyl-1,6-dihydropyridine-3-carboxamide] | < 0.5
COc1ccccc1-c1cc(=O)n(CC2(O)CCN(C(=O)C[C@@H](C)c3ccccc3)CC2)cc1C(=O)N(C)C(C)C [Example 89, (R)-1-((4-Hydroxy-1-(3-phenylbutanoyl)piperidin-4-yl)methyl)-N-isopropyl-4-(2-methoxyphenyl)-N-methyl-6-oxo-1,6-dihydropyridine-3-carboxamide] | 0.5 to 5
C[C@H](CC(=O)N1CCC(O)(Cn2cnc(C3=CCCCC3)cc2=O)CC1)c1ccccc1 [Example 28, (R)-6-(Cyclohex-1-en-1-yl)-3-((4-hydroxy-1-(3-phenylbutanoyl)piperidin-4-yl)methyl)pyrimidin-4(3H)-one] | 50 to 250
CC(CC1CCCCCC1)C(=O)N1CCC(O)(Cn2cnc(-c3ccccc3F)cc2=O)CC1 (racemic) [Example 58, (R,S)-3-((1-(3-Cycloheptyl-2-methylpropanoyl)-4-hydroxypiperidin-4-yl)methyl)-6-(2-fluorophenyl)pyrimidin-4(3H)-one] | 5 to 50
C[C@H](CC(=O)N1CCC(O)(Cn2cc(-c3ccc(CN)cc3)c(-c3ccccc3)cc2=O)CC1)c1ccccc1 [Example 86, (R)-5-(4-(Aminomethyl)phenyl)-1-((4-hydroxy-1-(3-phenylbutanoyl)piperidin-4-yl)methyl)-4-phenylpyridin-2(1H)-one] | 5 to 50
CC(n1cnc(-c2ccccc2)cc1=O)C1(O)CCN(C(=O)[C@H](C)CC2CCCCC2)CC1 (stereo partly drawn) [Example 108, 3-(1-(1-((R)-3-Cyclohexyl-2-methylpropanoyl)-4-hydroxypiperidin-4-yl)ethyl)-6-phenylpyrimidin-4(3H)-one] | 0.5 to 5
Cc1ccc(-c2cc(=O)n(CC3(O)CCN(C(=O)C[C@@H](C)c4ccccc4)CC3)cc2C(=O)N(C)C(C)C)cc1 [Example 96, (R)-1-((4-Hydroxy-1-(3-phenylbutanoyl)piperidin-4-yl)methyl)-N-isopropyl-N-methyl-6-oxo-4-(p-tolyl)-1,6-dihydropyridine-3-carboxamide] | 5 to 50
C[C@H](CC1CCC1)C(=O)N1CC[C@@](O)(Cn2cc(C(=O)N(C)C)c(C3CC3)cc2=O)C2(CCCC2)C1 [Example 230, 1-(((S)-7-((R)-3-Cyclobutyl-2-methylpropanoyl)-10-hydroxy-7-azaspiro[4.5]decan-10-yl)methyl)-4-cyclopropyl-N,N-dimethyl-6-oxo-1,6-dihydropyridine-3-carboxamide] | 0.5 to 5
CN(C)C(=O)c1cn(CC2(O)CCN(C(=O)c3csc(C(F)(F)F)n3)CC23CCCC3)c(=O)cc1-c1ccccc1 (centres unmarked) [Example 246, 1-((10-Hydroxy-7-(2-(trifluoromethyl)thiazole-4-carbonyl)-7-azaspiro[4.5]decan-10-yl)methyl)-N,N-dimethyl-6-oxo-4-phenyl-1,6-dihydropyridine-3-carboxamide] | 5 to 50

More lines, now with the values ahead:

IC50 [µM] | SMILES
0.5 to 5 | C[C@H](CC1CCCCC1)C(=O)N1CCC(O)(Cn2cnc(-c3cccc(CN)c3)cc2=O)C(C)(C)C1 (stereo partly drawn) [Example 159, 6-(3-(Aminomethyl)phenyl)-3-((1-((R)-3-cyclohexyl-2-methylpropanoyl)-4-hydroxy-3,3-dimethylpiperidin-4-yl)methyl)pyrimidin-4(3H)-one]
< 0.5 | C[C@H](CC1CCC1)C(=O)N1CC[C@@](O)(Cn2cc(C(=O)N3CCNCC3)c(-c3ccccc3F)cc2=O)C2(CCCC2)C1 [Example 224, 1-(((S)-7-((R)-3-Cyclobutyl-2-methylpropanoyl)-10-hydroxy-7-azaspiro[4.5]decan-10-yl)methyl)-4-(2-fluorophenyl)-5-(piperazine-1-carbonyl)pyridin-2(1H)-one]
< 0.5 | C[C@H](CC1CCCCC1)C(=O)N1CC[C@@](O)(Cn2cc(C(=O)N(C)C)c(-c3ccccc3F)cc2=O)C(C)(C)C1 [Example 205, 1-(((S)-1-((R)-3-Cyclohexyl-2-methylpropanoyl)-4-hydroxy-3,3-dimethylpiperidin-4-yl)methyl)-4-(2-fluorophenyl)-N,N-dimethyl-6-oxo-1,6-dihydropyridine-3-carboxamide]
0.5 to 5 | C[C@H](CC(F)(F)F)C(=O)N1CC[C@@](O)(Cn2cc(C(=O)N(C)C)c(-c3ccccc3F)cc2=O)C2(CCCC2)C1 [Example 223, 4-(2-Fluorophenyl)-1-(((S)-10-hydroxy-7-((R)-4,4,4-trifluoro-2-methylbutanoyl)-7-azaspiro[4.5]decan-10-yl)methyl)-N,N-dimethyl-6-oxo-1,6-dihydropyridine-3-carboxamide]
0.5 to 5 | CN(C)C(=O)c1cn(CC2(O)CCN(C(=O)C(O)Cc3ccccc3)CC23CCCC3)c(=O)cc1-c1ccccc1 (centres unmarked) [Example 203, 1-((10-Hydroxy-7-(2-hydroxy-3-phenylpropanoyl)-7-azaspiro[4.5]decan-10-yl)methyl)-N,N-dimethyl-6-oxo-4-phenyl-1,6-dihydropyridine-3-carboxamide]
< 0.5 | C[C@H](CC1CCC1)C(=O)N1CC[C@@](O)(Cn2cc(C(=O)N3CCNCC3)c(-c3ccccc3F)cc2=O)C(C)(C)C1 [Example 236, 1-(((S)-1-((R)-3-Cyclobutyl-2-methylpropanoyl)-4-hydroxy-3,3-dimethylpiperidin-4-yl)methyl)-4-(2-fluorophenyl)-5-(piperazine-1-carbonyl)pyridin-2(1H)-one]
5 to 50 | O=C([C@@H]1C[C@@H]1c1ccccc1)N1CCC(O)(Cn2cnc(-c3ccccc3F)cc2=O)CC1 (racemic) [Example 41, rac-6-(2-Fluorophenyl)-3-((4-hydroxy-1-(cis-2-phenylcyclopropanecarbonyl)piperidin-4-yl)methyl)pyrimidin-4(3H)-one]
5 to 50 | CN(C)C(=O)c1cn(C[C@@]2(O)CCN(C(=O)[C@H](CCO)CC3CCCCC3)CC2(C)C)c(=O)cc1-c1ccccc1 [Example 165, 1-(((R)-1-((S)-2-(Cyclohexylmethyl)-4-hydroxybutanoyl)-4-hydroxy-3,3-dimethylpiperidin-4-yl)methyl)-N,N-dimethyl-6-oxo-4-phenyl-1,6-dihydropyridine-3-carboxamide]
< 0.5 | C[C@H](CC1CCCCC1)C(=O)N1CC[C@@](O)(Cn2cc(C(=O)N3CCNCC3)c(-c3ccccc3F)cc2=O)C2(CCCC2)C1 [Example 227, 1-(((S)-7-((R)-3-Cyclohexyl-2-methylpropanoyl)-10-hydroxy-7-azaspiro[4.5]decan-10-yl)methyl)-4-(2-fluorophenyl)-5-(piperazine-1-carbonyl)pyridin-2(1H)-one]
